# From patent US8658683B2, “Combination of alpha-2 receptor agonist (clonidin) and anti-muscarinic agent (oxybutynin) for the treatment of sialorrhoea” (Orient Pharma (Samoa) Co., Ltd, priority 2006, dated 2014)
# Legend:
# [1] = system: patients with Parkinson's disease; settings: ophthalmic solution given sublingually, cited from earlier work
# [2] = system: healthy male volunteers; test: Saxon test of saliva production, open-label rising dose study; assay type: in vivo, human; settings: for saliva production over time: drug administered alone, pre-dose to 6 h post-dose; for effect of dose on saliva production: drug alone, rising dose levels
# Description: The study examined the effects of clonidine and oxybutynin on saliva production in 9 healthy male volunteers. This was an open-label, non-randomised, two-period, rising dose study.
# The subjects were assessed on each dosing occasion for saliva production pre-dose and 1 h, 2.5 h, 4 h and 6 h post-dose. Vital signs were recorded at specified times during each study period and adverse events were reported throughout.
# Using this information, a mixed effects regression analysis of the % reduction in saliva versus dose with subject as a random effect was performed for both clonidine and oxybutynin. From this model, an approximate ED30 and an ED50 were calculated.
# The key observation in this study is based on the Saxon test. See Kohler & Winter, Arthritis Rheum.
# [3] = system: sialorrhoea induced by clozapine; settings: in vivo; cited from earlier work
# [4] = system: Parkinson's patients; settings: 0.15 mg per os, 17 Parkinson's patients; cited from earlier work
# [5] = system: patients; settings: tablets; cited from earlier work
# [6] = system: patients receiving clozapine with excessive drooling; settings: nasal spray 0.03-0.06% sublingually, 8 patients, after several weeks of use; cited from earlier work
compound,measurement,setting,value
CN1[C@@H]2CC[C@H]1C[C@@H](OC(=O)C(CO)c1ccccc1)C2 (stereo partly shown) [atropine],patients who suffered hallucinations,[1]; 7 patients,2 of the 7
same,saliva production,[1]; small case study,significant decline in saliva production
Clc1cccc(Cl)c1N=C1NCCN1 [clonidine],AUCT of saliva production compared to placebo,[2]; 50 mcg clonidine,reduction in AUCTs
same,AUCT of saliva production compared to placebo,[2]; 100 mcg clonidine,reduction in AUCTs
same,saliva production over time,[2],trend towards a reduction in saliva production over time
same,effect of dose on saliva production,[2],significant with increasing dose levels
same,reduction of sialorrhoea induced by clozapine,[3],effective in reducing sialorrhoea
same,patients who experienced side-effects,[4],Four of the 17
same,reduction of sialorrhoea,[4],significantly reduce sialorrhoea
C[N+]1(C)CCC(OC(=O)C(O)(c2ccccc2)C2CCCC2)C1 (stereo not shown) [glycopyrrolate],patients by whom the drug is not well tolerated,[5],20-25 % of patients
CC(C)[N+]1(C)[C@@H]2CC[C@H]1C[C@@H](OC(=O)C(CO)c1ccccc1)C2 (stereo partly shown) [ipratropium],non-responder patients,[6],1 patient
same,patients with full response,[6],2 patients
same,patients with partial response (symptoms controlled for 2-8 hours),[6],5 patients
CCN(CC)CC#CCOC(=O)C(O)(c1ccccc1)C1CCCCC1 (stereo not shown) [oxybutynin],AUCT of saliva production compared to placebo,[2]; 10 mg oxybutynin,AUCT was reduced
same,saliva production over time,[2],trend towards a reduction in saliva production over time
same,effect of dose on saliva production,[2],no significant effects of dose on saliva production
